{"source": "patent US9486471B2", "about": "“Combination therapy for the treatment of cancer” (McMaster University, priority 2012, dated 2016)", "assay_type_in_all_cases": "cell-based, human", "key": {"[1]": {"test_system": "differentiation-associated genes in neoplastic hPSCs", "test": "TaqMan Low-Density Array-qPCR of differentiation genes", "conditions": "treated neoplastic hPSCs; >2 fold increase", "description": "Gene Expression Analysis. Cells in specific conditions were collected and RNA was extracted by using RNeasy kit (Qiagen), complementary DNA (cDNA) generation by using SuperScript III® cDNA synthesis kit (Invitrogen), pre-amplification and TaqMan® array reaction (Applied Biosystems) were performed according to manufacturer's instructions. The gene expression profile for each treated cell population was analyzed using TaqMan® Stem Cell Pluripotency Array Card on ViiA 7 Real-Time PCR System (Applied Biosystems). Each reaction sample was dispensed into loading wells on the array card and centrifuged twice at 336×g for 1 min each time, sealed, and placed in the thermal cycler. The following cycling conditions were used for all array card applications: 45° C. for 10 min, 94° C. for 10 min, and 40 cycles of 94° C. for 30 s followed by 60° C. for 1 min. Array data were normalized to 18S RNA and GAPDH and comparisons were performed using data analysis 2.0 software (Applied Biosystems)."}, "[2]": {"test_system": "p53 and p21 in neoplastic hPSCs", "test": "p53 and p21 accumulation in neoplastic hPSCs", "conditions": "24 h; 10 μM etoposide, 10 μM thioridazine, BMP4", "text": "Antibodies. Antibodies used for immunocytochemistry were the following: Oct3/4 (BD Trunsduction Laboratories, cat#611203), Sox2 (R&D, cat#AF2018). To detect human hematopoietic cells, Pacific Blue-, PE-, APC- or FITC labeled anti-human CD45 was used (BD Biosciences). FITC anti-CD33, PE anti-CD13, FITC anti-CD41a, FITC anti-HLA DR, and PE anti-CD19 antibodies were obtained from BD Pharmingen. PE anti-CD14, PE anti-CD15 and PE anti-GlyA were acquired from Immunotech Beckman Coulter. To determine pluripotency, PE anti-SSEA3 (BD Biosciences) and PE- or AlexaFluor488 anti-Oct4 (BD Biosciences). Rabbit anti-human dopamine receptor antibodies; DRD1 (Cat#324390), DRD2 (Cat#324393), DRD3 (Cat#324402), DRD4 (Cat#324405) and DRD5 (Cat#324408) were sourced from EMD Chemical. Anti-rabbit Alexa-Fluor-488 (Molecular Probes) was used as the secondary antibody. Primary anti-p53 (Cat#2527) and anti-p21 (Cat#2947) rabbit IgG sourced from Cell Signaling Technology were used to stain fixed and permeabilized cells. Anti-rabbit alexa-Fluor-546 (Molecular Probes) was used as the secondary antibody."}, "[3]": {"test_system": "patient AML cells (CD11b)", "test": "Frequency of CD11b granulocytic cells in cultured patient AML cells", "conditions": "10 μM, up to 96 hours"}, "AML patient blast cells": {"test_system": "AML patient blast cells", "test": "Methylcellulose colony-forming assay, AML patient blast-CFU", "experimental": "AML/HPSC Cell Culture. AML cell lines, namely, OCI-AML2 (M4), OCI-AML3 (M4), HL-60 (M2) and MV-4-11(M5) were cultured in RPMI (Gibco) supplemented with 5% heated-inactivated FBS (HyClone). For DR agonist studies with R(+)-7-Hydroxy-DPAT hydrobromide (Sigma), serum-free conditions were employed instead due to the prevalence of dopamine in FBS (Little et al., 2002). AML patient blasts were cultured in IMDM supplemented with 5% heated inactivated FBS (HyClone), 5 ng/mL IL3 (R&D systems), 5×10^−5 M β-mercaptoethanol (Sigma) and BIT (StemCell Technologies). HSC media contained IMDM supplemented with 1% BSA (Sigma), 100 ng/mL SCF (R&D systems), 100 ng/mL Flt-3L (R&D systems) and 20 ng/mL TPO (R&D systems). Patient HSPC and AML samples were treated with compound or DMSO-vehicle (0.1%) for 24 h prior to CFU plating or xenotransplantation studies.\nMethylcellulose Colony-Forming Assay. AML patient or CB lin− cells were cultured 24 hours in the presence of compound or DMSO-vehicle (0.1%) control. AML cells were plated at 50 000 cells/mL in Methocult GF H4434 (Stem Cell Technologies). CB lin− cells were plated at 1000 cells/mL in Methocult GF H4434 (Stem Cell Technologies). Colonies were scored after 14 days of culture using standard morphological criteria."}, "[4]": {"test_system": "v1H9-Oct4-GFP neoplastic hPSC", "test": "Chemical screening of neoplastic hPSC reporter line (GFP / Hoechst, loss of pluripotency)", "experimental": "In Vitro Culture Platform for Normal and Neoplastic hPSCs. Chemical screens involved v1H9-Oct4-GFP cells seeded at 5,000 cells per well in mouse embryonic fibroblast conditioned media (MEFCM) supplemented with 8 ng/ml bFGF. 24 hours later the media was exchanged for MEFCM with compounds at 10 μM and 0.1% DMSO, 0.1% DMSO (−BMP4) or 100 ng/ml of BMP4 and 0.1% DMSO (+BMP4) for 48 hours before being exchanged with fresh media with compound for a further 24 h (total compound treatment time 72 h) prior to being fixed and prepared for automated imaging and plate reader analysis. Confluent H9 & fibroblast-derived iPSC were seeded at 10,000 cells per well in MEFCM supplemented with 8 ng/ml bFGF. 24 hours later the cells were treated with compounds at 10 μM and 0.1% DMSO, 0.1% DMSO (−BMP4) or 100 ng/ml of BMP4 and 0.1% DMSO (+BMP4). Fresh MEFCM supplemented with compounds was exchanged daily for 5 days. On day 5, hPSC's were fixed and prepared for automated imaging and plate reader analysis. See supplementary experimental procedures for further details.\nImaging Neoplastic hPSC. Cells were fixed in 2% paraformaldehyde and stained with 10 μg/mL Hoechst 33342 (Invitrogen) with a Combi Multidrop Dispenser (Thermo). For experiments that involved Oct4 immunocytochemistry, a monoclonal antibody for Oct4 (BD) was used along with an Alexa-Fluor-647 secondary (Invitrogen). Immunocytochemical staining was performed by a Janus automated liquid handler (Perkin Elmer). Images were acquired at 10× N.A with an Arrayscan HCS VTI Reader (Cellomics) by means of epi-fluorescence illumination and standard filter sets.\nImage Analysis. Image analysis was performed using custom scripts in Acapella software (Perkin Elmer). Nuclear objects were segmented from the Hoechst signal. For neoplastic cell lines, object intensity analysis was performed on GFP positive cells only. For normal cell lines, the fraction of Alexa-Fluor-647-positive cells was quantified. Images and well-level data were stored and analysed in a Columbus Database (Perkin Elmer) and further data analysis, compounds registration and hit identification in ActivityBase (IDBS).\nThese Collections have been previously scrutinized in numerous other mammalian cell lines (Diallo et al., 2010; Shoemaker, 2006)."}, "primary AML cells": {"test_system": "primary AML cells", "test": "Methocellulose blast colony formation of primary AML cells (Example 2)", "conditions": "10 μM; control about 22; at least 14 days", "experimental": "Normal HSCs and progenitors were sourced from either mobilized peripheral blood or umbilical cord blood of health patients. Primary AML cells were taken from patients diagnosed with AML. Both normal HSCs and primary AML cells were cultured under standard in vitro methocellulose assay conditions (see http://www.stemcell.com/en/Products/All-Products/MethoCult-H4434-Classic.aspx as well as Clinton Campbell et al. The human stem cell hierarchy is defined by a functional dependence on Mcl-1 for self-renewal capacity. Blood 116 (9) 1433-1442 (Jun. 4, 2010), hereby incorporated by reference) for at least 14 days before the number of colonies were recorded."}}}
{"smiles": "CSc1ccc2c(c1)N(CCC1CCCCN1C)c1ccccc1S2", "note": "(racemic) [thioridazine, 10-{2-[(RS)-1-Methylpiperidin-2-yl]ethyl}-2-methylsulfanylphenothiazine]", "values": [{"measurement": "upregulated differentiation-associated genes", "setting": "[1]", "value": "21 of 50"}, {"measurement": "accumulation of cell stress marker p53", "setting": "[2]", "value": "no accumulation"}, {"measurement": "accumulation of p21", "setting": "[2]", "value": "no accumulation"}, {"measurement": "frequency of granulocytic (CD11b) AML-blast cells", "setting": "[3]", "value": "marked increase"}, {"measurement": "blast-CFU generation, DR+ subfraction of patient AML", "setting": "AML patient blast cells; 10 μM, 24 h", "value": "reduction"}, {"measurement": "blast-CFU generation, DR- subfraction of patient AML", "setting": "AML patient blast cells; 10 μM, 24 h", "value": "no reduction"}, {"measurement": "AML proliferation/clonogenic capacity", "setting": "AML patient blast cells; 24 h treatment, colonies scored after 14 days", "value": "reduction"}, {"measurement": "AML-blast CFU formation", "setting": "AML patient blast cells; dose not stated in the sentence (0.1, 1, 10 μM tested)", "value": "reduced"}, {"measurement": "hit in extended screen (loss of pluripotency)", "setting": "[4]; 2446 compound screen, reduced mean GFP intensity and cell count", "value": "hits"}, {"measurement": "activity at 10 µM", "setting": "[4]; Homo sapiens, 10 μM, 590 compound screen, read-out: Hoechst % residual activity (% RA)", "value": "> 30", "unit": "%"}, {"measurement": "number of CFU colonies of AML cells", "setting": "primary AML cells", "value": 1.6, "unit": "blast colonies"}]}
